Test results reported in US20230000870A1, “METHODS OF TREATING CANCER IN BIOMARKER-IDENTIFIED PATIENTS WITH INHIBITORS OF CYCLIN-DEPENDENT KINASE 7 (CDK7)” (Syros Pharmaceuticals, Inc., priority 2019, published 2023).

Key:
[1] = test system: A673 cells; assay: Inhibition of proliferation of A673 cells (CyQUANT, 72 hour); assay type: cell-based, human; settings: read-out: Inhibition of Proliferation of A673 Cells (calculated IC50)
Method: A673 Cells: A673 cells are a cell line derived from human muscle Ewing's sarcoma. Representative compounds of the invention were tested at different concentrations (from 4 μM to […]; 0.5 log serial dilutions) for their ability to inhibit the proliferation of A673 cells. Known CDK inhibitors dinaciclib or N-((1S,3R)-3-((5-chloro-4-(1H-indol-3-yl)pyrimidin-2-yl)amino)cyclohexyl)-5-((E)-4-(dimethylamino)but-2-enamido)picolinamide and triptolide were used as positive controls. Cells were grown in Dulbecco's Modified Eagle's Medium, +10% FBS+1 mM Sodium Pyruvate. The cells were cultured at 37° C. in a humidified chamber in the presence of 5% CO2. Proliferation assays were conducted over a 72 hour time period. CyQUANT® (Life Technologies, Chicago, Ill. USA) was used to assess the anti-proliferative effects of the compounds following manufacturer's directions and utilizing the reagents supplied with the CyQUANT® kit.

[2] = target: T1, CDK12 (aa686-1082)/Cyclin K complex (Homo sapiens, UniProt Q9NYV4); assay: CDK12 kinase inhibition assay (Caliper/LabChip EZ Reader); assay type: biochemical; settings: CDK12 (aa686-1082)/Cyclin K 50 nM, ATP 2 mM, 3 hr at 27° C.
T1 construct: CDK12 (aa686-1082)/Cyclin K complex
T1 sequence (Q9NYV4 686-1082): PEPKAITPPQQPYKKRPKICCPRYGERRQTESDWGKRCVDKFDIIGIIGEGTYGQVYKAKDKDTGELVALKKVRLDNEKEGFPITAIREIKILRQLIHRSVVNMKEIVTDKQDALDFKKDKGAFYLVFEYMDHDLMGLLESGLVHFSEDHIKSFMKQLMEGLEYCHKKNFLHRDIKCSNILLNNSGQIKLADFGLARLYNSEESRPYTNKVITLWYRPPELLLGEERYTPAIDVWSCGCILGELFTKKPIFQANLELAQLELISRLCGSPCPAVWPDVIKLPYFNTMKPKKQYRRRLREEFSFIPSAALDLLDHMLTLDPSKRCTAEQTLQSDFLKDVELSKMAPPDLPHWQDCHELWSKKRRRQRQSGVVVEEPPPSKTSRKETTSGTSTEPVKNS
T1 sequence (O75909 whole entry partner, the tested form may be a part): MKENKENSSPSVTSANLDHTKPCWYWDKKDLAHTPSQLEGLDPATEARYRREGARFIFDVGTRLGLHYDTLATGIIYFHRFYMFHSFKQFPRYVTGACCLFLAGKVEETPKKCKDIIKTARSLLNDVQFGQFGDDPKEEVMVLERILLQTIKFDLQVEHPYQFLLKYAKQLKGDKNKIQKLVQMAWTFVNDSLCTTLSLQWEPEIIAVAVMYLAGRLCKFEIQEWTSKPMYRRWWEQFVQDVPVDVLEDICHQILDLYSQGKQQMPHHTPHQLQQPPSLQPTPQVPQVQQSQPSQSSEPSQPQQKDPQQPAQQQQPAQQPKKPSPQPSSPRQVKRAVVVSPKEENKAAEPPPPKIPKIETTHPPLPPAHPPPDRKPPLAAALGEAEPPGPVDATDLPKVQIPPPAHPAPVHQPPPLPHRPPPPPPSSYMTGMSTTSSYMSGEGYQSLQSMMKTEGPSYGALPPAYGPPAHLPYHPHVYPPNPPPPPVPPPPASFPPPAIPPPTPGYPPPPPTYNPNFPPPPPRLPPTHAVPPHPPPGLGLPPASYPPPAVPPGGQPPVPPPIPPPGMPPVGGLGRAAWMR
Method: (§1) Compounds of the invention were assayed for inhibition of CDK7, CDK9, CDK12, and CDK2 activity at Biortus Biosciences (Jiangyin, Jiangsu Province, P.R. of China) using kinase assays for each CDK developed with a Caliper/LabChip EZ Reader (Perkin Elmer, Waltham, Mass.).
(§2) Furthermore, the CDK9 inhibition assay used CDK9/Cyclin T1 complex (8 nM) and “5-FAM-CDK9tide” peptide substrate (2 μM, synthesized fluorophore-labeled peptide with the following sequence: 5-FAM-GSRTPMY-NH2 where 5-FAM is defined above and NH2 signifies a C-terminal amide) with 10 mM MgCl2 in the buffer composition listed above. The CDK12 inhibition assay used CDK12 (aa686-1082)/Cyclin K complex (50 nM) and “5-FAM-CDK9tide” (2 μM) as defined above, with 2 mM MgCl2 in the buffer composition above. Additionally, the CDK2 inhibition assay used CDK2/Cyclin E1 complex (0.5 nM) and “5-FAM-CDK7tide” (2 μM) as defined above, with 2 mM MgCl2 in the buffer composition listed above.
(§3) The incubation period at 27° C. for each CDK inhibition assay was chosen such that the fraction of phosphorylated peptide product produced in each assay, relative to the total peptide concentration, was approximately 20% (±5%) for the uninhibited kinase (35 min. for CDK7, 35 min. for CDK2, 3 hr. for CDK12, 15 min. for CDK9).

[3] = target: CDK2/Cyclin E1 complex (Homo sapiens, UniProt P24941); assay: CDK2 kinase inhibition assay (Caliper/LabChip EZ Reader); assay type: biochemical; settings: CDK2/Cyclin E1 0.5 nM, ATP 2 mM, 35 min at 27° C.
Method: as §1, §2, §3

[4] = target: CDK7/Cyclin H/MAT1 complex (Homo sapiens, UniProt P50613); assay: CDK7 kinase inhibition assay (Caliper/LabChip EZ Reader); assay type: biochemical; settings: CDK7/Cyclin H/MAT1 6 nM, ATP 2 mM, 35 min at 27° C.
CDK7/Cyclin H/MAT1 complex, sequence (P50613 whole entry): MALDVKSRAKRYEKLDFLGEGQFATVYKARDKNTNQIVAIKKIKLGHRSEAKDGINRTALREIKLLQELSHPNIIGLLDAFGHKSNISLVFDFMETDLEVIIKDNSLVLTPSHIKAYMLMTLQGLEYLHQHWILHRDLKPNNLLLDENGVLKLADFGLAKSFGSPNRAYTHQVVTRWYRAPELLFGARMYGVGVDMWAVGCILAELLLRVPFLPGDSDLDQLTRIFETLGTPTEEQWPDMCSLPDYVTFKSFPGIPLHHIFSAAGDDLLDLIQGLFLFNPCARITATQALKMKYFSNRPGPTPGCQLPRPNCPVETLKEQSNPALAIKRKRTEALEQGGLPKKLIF
CDK7/Cyclin H/MAT1 complex, sequence (P51946 whole entry partner): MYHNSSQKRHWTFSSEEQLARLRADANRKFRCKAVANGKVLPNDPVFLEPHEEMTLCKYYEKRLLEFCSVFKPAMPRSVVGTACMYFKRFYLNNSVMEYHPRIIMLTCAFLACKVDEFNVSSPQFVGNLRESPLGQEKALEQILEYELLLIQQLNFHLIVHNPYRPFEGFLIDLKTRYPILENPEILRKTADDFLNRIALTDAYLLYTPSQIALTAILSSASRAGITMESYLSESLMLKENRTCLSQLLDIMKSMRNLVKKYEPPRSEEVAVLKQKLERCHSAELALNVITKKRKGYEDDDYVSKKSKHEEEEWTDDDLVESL
CDK7/Cyclin H/MAT1 complex, sequence (P51948 whole entry partner): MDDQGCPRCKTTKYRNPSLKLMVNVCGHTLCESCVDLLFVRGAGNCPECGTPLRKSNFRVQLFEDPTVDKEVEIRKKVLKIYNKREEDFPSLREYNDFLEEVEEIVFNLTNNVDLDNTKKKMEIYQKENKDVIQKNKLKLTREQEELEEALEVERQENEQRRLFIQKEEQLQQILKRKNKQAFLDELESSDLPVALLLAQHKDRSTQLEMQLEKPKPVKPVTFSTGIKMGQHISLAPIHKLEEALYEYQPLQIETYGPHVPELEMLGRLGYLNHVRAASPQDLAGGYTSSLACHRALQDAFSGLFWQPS
Method: as §1, §2, §3

[5] = target: CDK9/Cyclin T1 complex (Homo sapiens, UniProt P50750); assay: CDK9 kinase inhibition assay (Caliper/LabChip EZ Reader); assay type: biochemical; settings: CDK9/Cyclin T1 8 nM, ATP 2 mM, 15 min at 27° C.
CDK9/Cyclin T1 complex, sequence (P50750 whole entry): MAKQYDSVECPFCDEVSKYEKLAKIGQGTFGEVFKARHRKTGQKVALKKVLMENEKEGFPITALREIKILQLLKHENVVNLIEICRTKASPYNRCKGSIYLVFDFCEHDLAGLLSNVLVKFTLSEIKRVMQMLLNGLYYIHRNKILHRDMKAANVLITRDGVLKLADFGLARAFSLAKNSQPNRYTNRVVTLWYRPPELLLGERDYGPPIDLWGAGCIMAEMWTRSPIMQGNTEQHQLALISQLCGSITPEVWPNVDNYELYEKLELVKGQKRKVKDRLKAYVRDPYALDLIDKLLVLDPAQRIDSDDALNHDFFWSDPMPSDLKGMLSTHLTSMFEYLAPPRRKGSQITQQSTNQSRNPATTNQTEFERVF
CDK9/Cyclin T1 complex, sequence (O60563 whole entry partner): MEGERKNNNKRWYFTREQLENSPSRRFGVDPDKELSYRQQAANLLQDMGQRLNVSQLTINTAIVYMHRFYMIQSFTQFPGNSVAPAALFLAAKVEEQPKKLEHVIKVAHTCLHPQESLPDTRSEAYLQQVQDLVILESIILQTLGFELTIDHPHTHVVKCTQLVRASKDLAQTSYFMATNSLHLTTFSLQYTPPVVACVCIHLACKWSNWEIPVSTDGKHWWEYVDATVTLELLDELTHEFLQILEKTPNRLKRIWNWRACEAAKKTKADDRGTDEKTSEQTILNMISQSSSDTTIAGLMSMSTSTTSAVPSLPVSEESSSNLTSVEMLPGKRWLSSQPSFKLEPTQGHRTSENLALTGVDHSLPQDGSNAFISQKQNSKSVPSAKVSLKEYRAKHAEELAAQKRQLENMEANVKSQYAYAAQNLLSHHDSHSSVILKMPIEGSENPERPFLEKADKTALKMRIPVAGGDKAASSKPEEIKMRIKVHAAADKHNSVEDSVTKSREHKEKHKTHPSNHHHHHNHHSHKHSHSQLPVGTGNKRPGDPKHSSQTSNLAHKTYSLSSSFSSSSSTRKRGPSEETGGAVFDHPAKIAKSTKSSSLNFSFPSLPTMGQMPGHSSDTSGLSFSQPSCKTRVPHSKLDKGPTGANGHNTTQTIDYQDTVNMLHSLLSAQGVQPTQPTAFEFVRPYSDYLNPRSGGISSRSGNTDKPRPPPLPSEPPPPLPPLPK
Method: as §1, §2, §3

IC50 [2] | IC50 [3] | IC50 [4] | IC50 [5] | SMILES | IC50 [1]
≥ 5 µM | ≥ 5 µM | 200 to 5000 nM | 0.2 to 5 µM | Clc1cnc(NC2CCCNC2)nc1-c1cn(-c2ccccc2)c2ccccc12 (stereo not drawn) [Compound 132] | 200 to 5000 nM
0.02 to 0.2 µM | 0.02 to 0.2 µM | < 20 nM | 0.2 to 5 µM | Brc1cnc(N[C@@H]2CCCNC2)nc1-c1c[nH]c2ccccc12 [Compound 133] | < 20 nM
≥ 5 µM | ≥ 5 µM | 20 to 200 nM | ≥ 5 µM | c1ccc2c(-c3nc(NC4CCCNC4)ncc3C3CC3)c[nH]c2c1 (stereo not drawn) [Compound 135] | 200 to 5000 nM
0.2 to 5 µM | 0.2 to 5 µM | < 20 nM | 0.2 to 5 µM | CN1CCCC(Nc2ncc(Cl)c(-c3c[nH]c4ccccc34)n2)C1 (stereo not drawn) [Compound 136] | 20 to 200 nM
0.2 to 5 µM | 0.2 to 5 µM | < 20 nM | 0.2 to 5 µM | CCc1cnc(N[C@H]2CCCNC2)nc1-c1c[nH]c2c(C)cccc12 [Compound 137] | 20 to 200 nM
0.2 to 5 µM | 0.2 to 5 µM | 20 to 200 nM | 0.2 to 5 µM | Cc1cccc2c(-c3nc(NC4CCCNC4)ncc3F)c[nH]c12 (stereo not drawn) [Compound 138] | 200 to 5000 nM
≥ 5 µM | ≥ 5 µM | 200 to 5000 nM | ≥ 5 µM | Cc1cccc2c(-c3nc(NC4CCCNC4)ncc3CC(C)C)c[nH]c12 (stereo not drawn) [Compound 140] | 200 to 5000 nM
0.2 to 5 µM | 0.2 to 5 µM | < 20 nM | 0.2 to 5 µM | CC(=O)c1cccc2c(-c3nc(NC4CCCNC4)ncc3Cl)c[nH]c12 (stereo not drawn) [Compound 142] | < 20 nM
0.2 to 5 µM | 0.2 to 5 µM | < 20 nM | 0.2 to 5 µM | CCc1cnc(N[C@H]2CCCNC2)nc1-c1n[nH]c2c(F)cccc12 [Compound 143] | < 20 nM
0.2 to 5 µM | ≥ 5 µM | 20 to 200 nM | ≥ 5 µM | CC(C)CN1CCCC(Nc2ncc(Cl)c(-c3c[nH]c4ccccc34)n2)C1 (stereo not drawn) [Compound 145] | 200 to 5000 nM
≥ 5 µM | ≥ 5 µM | ≥ 5000 nM | ≥ 5 µM | Clc1cnc(NC2CCCNC2)nc1-c1c[nH]c2cccnc12 (stereo not drawn) [Compound 146] | 20 to 200 nM
0.2 to 5 µM | 0.02 to 0.2 µM | < 20 nM | 0.2 to 5 µM | Ic1cnc(NC2CCCNC2)nc1-c1c[nH]c2ccccc12 (stereo not drawn) [Compound 147] | < 20 nM
0.2 to 5 µM | ≥ 5 µM | 20 to 200 nM | 0.2 to 5 µM | CC(C)N1CCCC(Nc2ncc(Cl)c(-c3c[nH]c4ccccc34)n2)C1 (stereo not drawn) [Compound 148] | 20 to 200 nM
0.2 to 5 µM | 0.2 to 5 µM | 20 to 200 nM | 0.2 to 5 µM | COCCN1CCCC(Nc2ncc(Cl)c(-c3c[nH]c4ccccc34)n2)C1 (stereo not drawn) [Compound 149] | 20 to 200 nM
0.2 to 5 µM | 0.2 to 5 µM | 20 to 200 nM | 0.2 to 5 µM | Clc1cnc(N[C@H]2CCCNC2)nc1-c1c[nH]c2c(N3CCOCC3)cccc12 [Compound 150] | 20 to 200 nM
≥ 5 µM | ≥ 5 µM | 200 to 5000 nM | ≥ 5 µM | Clc1cnc(NC2CCCNC2)nc1-c1c[nH]c2ccc(N3CCOCC3)cc12 (stereo not drawn) [Compound 151] | 20 to 200 nM
0.2 to 5 µM | 0.2 to 5 µM | < 20 nM | 0.2 to 5 µM | Fc1cc2[nH]nc(-c3nc(NC4CCCNC4)ncc3C(F)(F)F)c2cc1F (stereo not drawn) [Compound 152] | < 20 nM

IC50 [2] | IC50 [3] | IC50 [4] | IC50 [5] | SMILES | IC50 [1]
0.02 to 0.2 µM | 0.02 to 0.2 µM | < 20 nM | 0.2 to 5 µM | N#Cc1cccc2c(-c3nc(NC4CCCNC4)ncc3C(F)(F)F)c[nH]c12 (stereo not drawn) [Compound 153] | < 20 nM
0.2 to 5 µM | ≥ 5 µM | 20 to 200 nM | 0.2 to 5 µM | O=C(O)c1cccc2c(-c3nc(NC4CCCNC4)ncc3Cl)c[nH]c12 (stereo not drawn) [Compound 154] | 200 to 5000 nM
0.2 to 5 µM | 0.2 to 5 µM | 20 to 200 nM | 0.2 to 5 µM | Fc1cccc2c(-c3nc(NC4CCCNC4)ncc3Cl)n[nH]c12 (stereo not drawn) [Compound 155] | < 20 nM
0.2 to 5 µM | 0.2 to 5 µM | < 20 nM | 0.2 to 5 µM | Fc1cccc2c(-c3nc(N[C@H]4CCCNC4)ncc3C(F)(F)F)n[nH]c12 [Compound 156] | < 20 nM
0.2 to 5 µM | 0.2 to 5 µM | < 20 nM | 0.2 to 5 µM | N#Cc1cnc(NC2CCCNC2)nc1-c1c[nH]c2ccccc12 (stereo not drawn) [Compound 157] | < 20 nM
0.2 to 5 µM | ≥ 5 µM | 200 to 5000 nM | ≥ 5 µM | FC(F)(F)Cc1cnc(N[C@H]2CCCNC2)nc1-c1c[nH]c2ccccc12 [Compound 158] | 20 to 200 nM
0.2 to 5 µM | 0.2 to 5 µM | < 20 nM | 0.2 to 5 µM | FC(F)(F)c1cnc(N[C@H]2CCCNC2)nc1-c1c[nH]c2ccc(Cl)cc12 [Compound 160] | < 20 nM
0.02 to 0.2 µM | 0.2 to 5 µM | < 20 nM | 0.2 to 5 µM | FC(F)(F)c1cnc(NC2CCCNC2)nc1-c1c[nH]c2c(Cl)cccc12 (stereo not drawn) [Compound 167] | < 20 nM
≥ 5 µM | ≥ 5 µM | 200 to 5000 nM | ≥ 5 µM | CCOP(=O)(OCC)c1cccc2c(-c3nc(NC4CCCNC4)ncc3C(F)(F)F)c[nH]c12 (stereo not drawn) [Compound 168] | 200 to 5000 nM
0.2 to 5 µM | ≥ 5 µM | 20 to 200 nM | ≥ 5 µM | N#Cc1ccc2[nH]cc(-c3nc(NC4CCCNC4)ncc3C(F)(F)F)c2c1 (stereo not drawn) [Compound 169] | 200 to 5000 nM
0.2 to 5 µM | 0.2 to 5 µM | < 20 nM | 0.2 to 5 µM | Cc1nn(C)cc1-c1cccc2c(-c3nc(NC4CCCNC4)ncc3C(F)(F)F)c[nH]c12 (stereo not drawn) [Compound 171] | < 20 nM
0.2 to 5 µM | 0.2 to 5 µM | < 20 nM | 0.2 to 5 µM | Cc1cn(-c2cccc3c(-c4nc(NC5CCCNC5)ncc4C(F)(F)F)c[nH]c23)cn1 (stereo not drawn) [Compound 172] | < 20 nM
0.2 to 5 µM | 0.2 to 5 µM | < 20 nM | 0.2 to 5 µM | Clc1cnc(N[C@H]2CCCNC2)nc1-c1n[nH]c2ccccc12 [Compound 174] | 20 to 200 nM
0.2 to 5 µM | ≥ 5 µM | 20 to 200 nM | ≥ 5 µM | FC(F)(F)c1cnc(NC2CCCNC2)nc1-c1c[nH]c2ccc(-c3cn[nH]c3)cc12 (stereo not drawn) [Compound 177] | 200 to 5000 nM
0.2 to 5 µM | ≥ 5 µM | 20 to 200 nM | ≥ 5 µM | Cn1cc(-c2ccc3[nH]cc(-c4nc(NC5CCCNC5)ncc4C(F)(F)F)c3c2)cn1 (stereo not drawn) [Compound 178] | 200 to 5000 nM
0.2 to 5 µM | 0.2 to 5 µM | < 20 nM | 0.2 to 5 µM | CCOP(C)(=O)c1cccc2c(-c3nc(NC4CCCNC4)ncc3C(F)(F)F)c[nH]c12 (stereo not drawn) [Compound 179] | < 20 nM
0.2 to 5 µM | 0.2 to 5 µM | < 20 nM | 0.2 to 5 µM | Cn1cc(-c2ccc3c(-c4nc(NC5CCCNC5)ncc4C(F)(F)F)c[nH]c3c2)cn1 (stereo not drawn) [Compound 181] | < 20 nM

SMILES | IC50 [2] | IC50 [3] | IC50 [4] | IC50 [5] | IC50 [1]
Clc1cnc(NC2CN3CCC2CC3)nc1-c1c[nH]c2ccccc12 (stereo not drawn) [Compound 131] | ≥ 5 µM | ≥ 5 µM | ≥ 5000 nM | ≥ 5 µM | 200 to 5000 nM
Clc1cnc(N[C@H]2CN3CCC2CC3)nc1-c1c[nH]c2ccccc12 [Compound 134] | ≥ 5 µM | ≥ 5 µM | ≥ 5000 nM | ≥ 5 µM | 200 to 5000 nM
